This experiment concerns the target T1, ΔF508-CFTR (Homo sapiens, UniProt P13569, DEL508-508).
T1 construct: expressed in transfected cells
The experiment can be described thus: Membrane potential optical (FRET/VIPR) assay, identification of correction compounds. Type of experiment: cell-based. To be noted: Table 3, assay not given; for Emax: read-out: % Activity / % Efficacy (relative efficacy). A digest of the protocol:
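NIH3T3 mouse fibroblasts stably expressing ΔF508-CFTR were exposed to compound for 16 h at 37° C in serum-free medium, then loaded with DiSBAC2(3)/CC2-DMPE. After addition of 10 μM forskolin plus 20 μM genistein in Cl⁻-free gluconate bath (pH 7.4), depolarization from Cl⁻ efflux was read by FRET (VIPR II).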

Consider 40 compounds from patent US7977322B2 (Vertex Pharmaceuticals Incorporated, priority 2004, dated 2011).

T1 sequence (P13569 with tags, fused parts or gaps DEL508-508): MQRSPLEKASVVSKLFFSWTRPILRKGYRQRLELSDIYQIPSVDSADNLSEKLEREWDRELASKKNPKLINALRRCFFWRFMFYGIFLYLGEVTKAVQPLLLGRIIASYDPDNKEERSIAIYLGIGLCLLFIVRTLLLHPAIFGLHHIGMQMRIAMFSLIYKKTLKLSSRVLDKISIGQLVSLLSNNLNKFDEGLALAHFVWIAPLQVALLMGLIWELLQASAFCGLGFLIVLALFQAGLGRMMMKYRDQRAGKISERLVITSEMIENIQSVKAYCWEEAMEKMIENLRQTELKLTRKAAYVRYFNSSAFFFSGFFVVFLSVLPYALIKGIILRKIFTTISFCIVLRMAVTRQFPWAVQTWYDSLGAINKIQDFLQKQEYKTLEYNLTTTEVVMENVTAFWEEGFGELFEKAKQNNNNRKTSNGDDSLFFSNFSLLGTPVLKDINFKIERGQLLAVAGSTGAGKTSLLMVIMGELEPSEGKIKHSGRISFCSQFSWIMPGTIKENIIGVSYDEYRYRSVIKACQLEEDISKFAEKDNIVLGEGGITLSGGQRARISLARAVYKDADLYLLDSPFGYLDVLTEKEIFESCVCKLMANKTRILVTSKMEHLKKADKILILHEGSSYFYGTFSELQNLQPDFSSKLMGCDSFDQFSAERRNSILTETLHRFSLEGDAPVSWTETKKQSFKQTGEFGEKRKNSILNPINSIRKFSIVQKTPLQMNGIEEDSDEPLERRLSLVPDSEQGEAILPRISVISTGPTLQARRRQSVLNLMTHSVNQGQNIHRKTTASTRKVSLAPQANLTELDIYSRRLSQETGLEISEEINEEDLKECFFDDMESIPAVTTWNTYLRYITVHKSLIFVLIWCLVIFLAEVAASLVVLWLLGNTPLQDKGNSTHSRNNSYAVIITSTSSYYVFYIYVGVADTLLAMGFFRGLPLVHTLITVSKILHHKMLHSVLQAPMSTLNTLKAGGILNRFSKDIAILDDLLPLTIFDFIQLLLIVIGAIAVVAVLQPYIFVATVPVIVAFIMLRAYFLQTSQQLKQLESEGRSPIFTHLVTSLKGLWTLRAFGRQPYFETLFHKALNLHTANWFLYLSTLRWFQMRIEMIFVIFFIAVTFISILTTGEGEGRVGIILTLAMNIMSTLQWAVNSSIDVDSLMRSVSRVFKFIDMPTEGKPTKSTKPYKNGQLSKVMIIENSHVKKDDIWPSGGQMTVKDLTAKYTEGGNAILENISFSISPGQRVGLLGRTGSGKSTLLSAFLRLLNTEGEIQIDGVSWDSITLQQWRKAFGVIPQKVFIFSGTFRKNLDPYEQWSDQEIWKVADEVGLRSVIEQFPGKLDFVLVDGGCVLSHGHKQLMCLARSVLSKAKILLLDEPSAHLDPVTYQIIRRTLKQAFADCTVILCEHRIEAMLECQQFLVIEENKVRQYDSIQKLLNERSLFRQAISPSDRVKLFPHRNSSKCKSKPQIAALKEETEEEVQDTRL

The term EC50 denotes the concentration needed to bring the measured effect to its halfway point. Consider `O=C(Nc1ncc(Cc2ccccc2Cl)s1)C1(c2cccc(N3CCOCC3)c2)CC1` [Example 315], for which the EC50 is < 10 µM and the Emax lay in the range of 25 to 100%.
In the same order, the values of `O=C(Nc1ncc(Cc2ccccc2Cl)s1)C1(c2cccc(O)c2)CC1` [Example 316] are < 10 µM and 25 to 100%.
In the same order, the values of `O=C(Nc1ncc(Cc2ccccc2Cl)s1)C1(c2ccc(O)cc2)CC1` [Example 317] are < 10 µM and 25 to 100%.
In the same order, the values of `O=C(Nc1ncc(CN2CC[C@@H](O)C2)s1)C1(c2ccc3c(c2)OCO3)CC1` [Example 319] are 10 to 25 µM and 25 to 100%.
As to `O=C(Nc1ncc(CN2CC[C@H](O)C2)s1)C1(c2ccc3c(c2)OCO3)CC1` [Example 320], the EC50 was in the range of 10 to 25 µM and the Emax is > 100%.
In the same order, the values of `CC(=O)O[C@@H]1CCN(C(c2cnc(NC(=O)C3(c4ccc5c(c4)OCO5)CC3)s2)c2ccccc2Cl)C1` (some centres unmarked) [Example 321] are < 10 µM and > 100%.
Take `O=C(Nc1ncc([C@@H](O)c2ccccc2Cl)s1)C1(c2ccc3c(c2)OCO3)CC1` [Example 322]: the EC50 was < 10 µM and the Emax is > 100%.
Consider `O=C(Nc1ncc([C@H](O)c2ccccc2Cl)s1)C1(c2ccc3c(c2)OCO3)CC1` [Example 323], for which the EC50 was < 10 µM and the Emax is > 100%.
In the case of `COCC1CCCN1C(c1ccc(Cl)cc1)c1cnc(NC(=O)C2(c3ccc4c(c3)OCO4)CC2)s1` (centres unmarked) [Example 331], the EC50 is < 10 µM and the Emax is > 100%.
In the same order, the values of `O=C(Nc1ncc(C(c2ccc(Cl)cc2)N2CC[C@@H](O)C2)s1)C1(c2ccc3c(c2)OCO3)CC1` (some centres unmarked) [Example 335] are < 10 µM and > 100%.
In the same order, the values of `O=C(Nc1ncc(C(c2cccc(Cl)c2)N2CC[C@@H](O)C2)s1)C1(c2ccc3c(c2)OCO3)CC1` (some centres unmarked) [Example 343] are < 10 µM and > 100%.
In the same order, the values of `COc1cccc(C(c2cnc(NC(=O)C3(c4ccc5c(c4)OCO5)CC3)s2)N2CCCCC2)c1` (centres unmarked) [Example 344] are < 10 µM and 25 to 100%.
In the case of `COC[C@@H]1CCCN1C(c1cccc(OC)c1)c1cnc(NC(=O)C2(c3ccc4c(c3)OCO4)CC2)s1` (some centres unmarked) [Example 345], the EC50 is < 10 µM and the Emax was 25 to 100%.
In the same order, the values of `COc1ccccc1C(c1cnc(NC(=O)C2(c3ccc4c(c3)OCO4)CC2)s1)N1CC[C@@H](O)C1` (some centres unmarked) [Example 346] are 10 to 25 µM and > 100%.
Regarding `COC[C@@H]1CCCN1C(c1ccccc1)c1cnc(NC(=O)C2(c3ccc4c(c3)OCO4)CC2)s1` (some centres unmarked) [Example 347], the EC50 lay in the range of 10 to 25 µM and the Emax was > 100%.
Turning to `COc1ccccc1C(c1cnc(NC(=O)C2(c3ccc4c(c3)OCO4)CC2)s1)N1CCC(O)CC1` (centres unmarked) [Example 348], the EC50 is 10 to 25 µM and the Emax was > 100%.
Take `COc1ccccc1C(c1cnc(NC(=O)C2(c3ccc4c(c3)OCO4)CC2)s1)N1CCCCC1` (centres unmarked) [Example 349]: the EC50 was < 10 µM and the Emax was > 100%.
In the same order, the values of `COc1ccc(C(c2cnc(NC(=O)C3(c4ccc5c(c4)OCO5)CC3)s2)N(C)C)cc1` (centres unmarked) [Example 350] are < 10 µM and > 100%.
On to `O=C(Nc1ncc(C(c2ccccc2)N2CCC(O)CC2)s1)C1(c2ccc3c(c2)OCO3)CC1` (centres unmarked) [Example 351], for which the EC50 lay in the range of 10 to 25 µM and the Emax was > 100%.
As for `COc1ccc(C(c2cnc(NC(=O)C3(c4ccc5c(c4)OCO5)CC3)s2)N2CC[C@@H](O)C2)cc1` (some centres unmarked) [Example 352], the EC50 fell in the range of 10 to 25 µM and the Emax is > 100%.
Consider `COCC1CCCN1C(c1cccc(OC)c1)c1cnc(NC(=O)C2(c3ccc4c(c3)OCO4)CC2)s1` (centres unmarked) [Example 353], for which the EC50 is < 10 µM and the Emax was > 100%.
In the same order, the values of `COc1ccccc1C(c1cnc(NC(=O)C2(c3ccc4c(c3)OCO4)CC2)s1)N1CCCC1` (centres unmarked) [Example 354] are < 10 µM and > 100%.
As for `COCC1CCCN1C(c1ccccc1)c1cnc(NC(=O)C2(c3ccc4c(c3)OCO4)CC2)s1` (centres unmarked) [Example 355], the EC50 is < 10 µM and the Emax is > 100%.
`CN(C)C(c1ccccc1)c1cnc(NC(=O)C2(c3ccc4c(c3)OCO4)CC2)s1` (centres unmarked) [Example 356]: the EC50 was 10 to 25 µM and the Emax was > 100%.
In the same order, the values of `CCN(CC)C(c1cccc(OC)c1)c1cnc(NC(=O)C2(c3ccc4c(c3)OCO4)CC2)s1` (centres unmarked) [Example 357] are < 10 µM and > 100%.
Turning to `COCC1CCCN1C(c1cnc(NC(=O)C2(c3ccc4c(c3)OCO4)CC2)s1)c1ccccc1OC` (centres unmarked) [Example 358], the half-maximal effective concentration (EC50) fell in the range of 10 to 25 µM and the Emax is > 100%.
In the same order, the values of `O=C(Nc1ncc(C(c2ccccc2)N2CCCC2)s1)C1(c2ccc3c(c2)OCO3)CC1` (centres unmarked) [Example 359] are < 10 µM and > 100%.
In the same order, the values of `COc1cccc(C(c2csc(NC(=O)C3(c4ccc5c(c4)OCO5)CC3)n2)N2CCC(O)CC2)c1` (centres unmarked) [Example 360] are 10 to 25 µM and > 100%.
In the same order, the values of `COc1ccc(C(c2cnc(NC(=O)C3(c4ccc5c(c4)OCO5)CC3)s2)N2CCCCC2)cc1` (centres unmarked) [Example 361] are < 10 µM and > 100%.
As to `COc1ccc(C(c2cnc(NC(=O)C3(c4ccc5c(c4)OCO5)CC3)s2)N2CCCC2)cc1` (centres unmarked) [Example 362], the EC50 lay in the range of 10 to 25 µM and the Emax was > 100%.
As to `COc1ccccc1C(c1cnc(NC(=O)C2(c3ccc4c(c3)OCO4)CC2)s1)N(C)C` (centres unmarked) [Example 364], the EC50 is 10 to 25 µM and the Emax was > 100%.
With `CCN(CC)C(c1cnc(NC(=O)C2(c3ccc4c(c3)OCO4)CC2)s1)c1ccccc1OC` (centres unmarked) [Example 365], the concentration giving a half-maximal response (EC50) was < 10 µM and the Emax is > 100%.
Consider `COc1cccc(C(c2cnc(NC(=O)C3(c4ccc5c(c4)OCO5)CC3)s2)N(C)C)c1` (centres unmarked) [Example 366], for which the EC50 was in the range of 10 to 25 µM and the Emax is > 100%.
In the case of `COc1cccc(C(c2cnc(NC(=O)C3(c4ccc5c(c4)OCO5)CC3)s2)N2CC[C@@H](O)C2)c1` (some centres unmarked) [Example 367], the EC50 was < 10 µM and the Emax is > 100%.
With `O=C(Nc1ncc(C(c2ccccc2)N2CC[C@@H](O)C2)s1)C1(c2ccc3c(c2)OCO3)CC1` (some centres unmarked) [Example 368], the EC50 lay in the range of 10 to 25 µM and the Emax is > 100%.
On to `O=C(Nc1ncc(C(c2ccccc2)N2CCOCC2)s1)C1(c2ccc3c(c2)OCO3)CC1` (centres unmarked) [Example 369], for which the EC50 was < 10 µM and the Emax is > 100%.
On to `COc1cccc(C(c2cnc(NC(=O)C3(c4ccc5c(c4)OCO5)CC3)s2)N2CCC[C@@H]2C(N)=O)c1` (some centres unmarked) [Example 370], for which the concentration giving a half-maximal response (EC50) is < 10 µM and the Emax was > 100%.
In the same order, the values of `O=C(Nc1ncc(C(c2ccccc2)N2CCCCC2)s1)C1(c2ccc3c(c2)OCO3)CC1` (centres unmarked) [Example 371] are < 10 µM and > 100%.
As to `CCN(CC)C(c1ccccc1)c1cnc(NC(=O)C2(c3ccc4c(c3)OCO4)CC2)s1` (centres unmarked) [Example 372], the EC50 was < 10 µM and the Emax is > 100%.
In the same order, the values of `COc1cccc(C(c2cnc(NC(=O)C3(c4ccc5c(c4)OCO5)CC3)s2)N2CCCC2)c1` (centres unmarked) [Example 373] are < 10 µM and > 100%.
